In PubChem BioAssay (NCI):
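Assay format: 96-well plates, 48-hour exposure. TGI is the concentration that stops growth completely.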

Key:
Assay in all cases: NCI tumour cell line growth inhibition, 48 h
SK-MEL-2 melanoma = system: SK-MEL-2 melanoma
A549 NSCLC = system: A549 NSCLC
CCRF-CEM leukemia = system: CCRF-CEM leukemia
NCI-H522 lung = system: NCI-H522 lung
MDA-MB-435 = system: MDA-MB-435
OVCAR-4 ovarian = system: OVCAR-4 ovarian
SF-539 CNS = system: SF-539 CNS
RXF 393 renal = system: RXF 393 renal
T-47D breast = system: T-47D breast
EKVX NSCLC = system: EKVX NSCLC
MALME-3M melanoma = system: MALME-3M melanoma
SK-MEL-5 melanoma = system: SK-MEL-5 melanoma
UACC-62 melanoma = system: UACC-62 melanoma
SF-268 CNS = system: SF-268 CNS
MDA-MB-231 breast = system: MDA-MB-231 breast
SF-295 CNS = system: SF-295 CNS
HT29 colon = system: HT29 colon
MOLT-4 leukemia = system: MOLT-4 leukemia
NCI-H226 lung = system: NCI-H226 lung
SN12C renal = system: SN12C renal
PC-3 prostate = system: PC-3 prostate
ACHN renal = system: ACHN renal
U251 CNS = system: U251 CNS
CAKI-1 renal = system: CAKI-1 renal
SNB-19 CNS = system: SNB-19 CNS
NCI-H460 lung = system: NCI-H460 lung
HOP-62 NSCLC = system: HOP-62 NSCLC
SR leukemia = system: SR leukemia
HL-60(TB) leukemia = system: HL-60(TB) leukemia
DU-145 prostate = system: DU-145 prostate
786-0 renal = system: 786-0 renal
BT-549 breast = system: BT-549 breast
K-562 leukemia = system: K-562 leukemia
NCI-H23 lung = system: NCI-H23 lung
NCI/ADR-RES ovarian = system: NCI/ADR-RES ovarian
M14 melanoma = system: M14 melanoma
OVCAR-8 ovarian = system: OVCAR-8 ovarian
RPMI-8226 leukemia = system: RPMI-8226 leukemia
MDA-N = system: MDA-N
HCT-15 colon = system: HCT-15 colon
IGROV1 ovarian = system: IGROV1 ovarian
LOX IMVI melanoma = system: LOX IMVI melanoma
HCT-116 colon = system: HCT-116 colon
OVCAR-3 ovarian = system: OVCAR-3 ovarian
OVCAR-5 ovarian = system: OVCAR-5 ovarian
A498 renal = system: A498 renal
UACC-257 melanoma = system: UACC-257 melanoma
SK-OV-3 ovarian = system: SK-OV-3 ovarian
SK-MEL-28 melanoma = system: SK-MEL-28 melanoma
TK-10 renal = system: TK-10 renal
MCF7 breast = system: MCF7 breast
KM12 colon = system: KM12 colon
HCC-2998 colon = system: HCC-2998 colon
COLO 205 colon = system: COLO 205 colon
SW-620 colon = system: SW-620 colon
HS 578T breast = system: HS 578T breast
HOP-92 NSCLC = system: HOP-92 NSCLC
UO-31 renal = system: UO-31 renal
SNB-75 CNS = system: SNB-75 CNS

Measured: TGI

CC(C)(C)C1CCC2c3c([nH]c4ccccc34)C3C(=O)N(c4ccc5c(c4)C(=O)c4ccccc4C5=O)C(=O)C3C2C1 (stereo not given)
not listed: HOP-92 NSCLC | UO-31 renal | SNB-75 CNS
> 100 µM: all other assays above

CC1OC(OC2C(Oc3cc(O)c4c(c3)O[C@H](c3ccc(O)cc3)CC4=O)OC(CO)C(O)C2O)C(O)C(O)C1O (stereo not given in full)
not listed: SNB-19 CNS | NCI-H460 lung | K-562 leukemia
> 100 µM: all other assays above

CC#CC(O)(C(=O)OC1CC2CCC(C1)N2C)C1CCCC1 (stereo not given)
not listed: NCI-H522 lung | MALME-3M melanoma
> 100 µM: all other assays above

NCCSCCc1ccccc1
not listed: CCRF-CEM leukemia | MOLT-4 leukemia | HL-60(TB) leukemia
> 100 µM: all other assays above
